Results on seven molecules are retold here after PMC5464768, “ER retention is imposed by COPII protein sorting and attenuated by 4-phenylbutyrate” (eLife, 2017).

SMILES strings stand for the structures. Like-named read-outs stand apart in the source and are kept apart here.

One series addresses T1, human Sec24a (Homo sapiens, UniProt O95486).
T1 construct: His6 (TEV-cleavable) (N, cleaved yes); made in house; host or cells: High Five insect cells (baculovirus)
T1 sequence (O95486 341-1093): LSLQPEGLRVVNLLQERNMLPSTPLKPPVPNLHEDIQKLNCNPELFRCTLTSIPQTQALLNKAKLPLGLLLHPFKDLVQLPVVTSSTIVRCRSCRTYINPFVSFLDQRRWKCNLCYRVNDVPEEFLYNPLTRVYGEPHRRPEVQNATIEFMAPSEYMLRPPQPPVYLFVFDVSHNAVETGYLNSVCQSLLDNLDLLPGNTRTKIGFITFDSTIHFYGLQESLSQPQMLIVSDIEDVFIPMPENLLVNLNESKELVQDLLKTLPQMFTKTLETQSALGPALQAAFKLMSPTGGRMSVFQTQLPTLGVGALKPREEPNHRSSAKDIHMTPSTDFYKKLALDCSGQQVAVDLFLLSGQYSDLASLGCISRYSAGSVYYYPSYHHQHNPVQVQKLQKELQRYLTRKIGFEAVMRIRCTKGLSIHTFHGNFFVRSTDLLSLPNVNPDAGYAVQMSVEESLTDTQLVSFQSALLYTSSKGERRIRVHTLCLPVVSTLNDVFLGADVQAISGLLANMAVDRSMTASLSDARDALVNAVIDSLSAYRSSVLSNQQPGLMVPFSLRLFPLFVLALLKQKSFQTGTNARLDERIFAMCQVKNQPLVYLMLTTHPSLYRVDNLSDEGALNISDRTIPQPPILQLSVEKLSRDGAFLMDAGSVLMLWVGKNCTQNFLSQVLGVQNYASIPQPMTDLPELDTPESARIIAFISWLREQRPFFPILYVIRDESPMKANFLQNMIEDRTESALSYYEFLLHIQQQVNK
Briefly: Fluorescence polarization competition binding assay (displacement of 5-Fam-[…]). The conditions noted are these: fluorescence polarization at 22°C; 5 µM probe, 22 µM Sec24a; ± standard error of fit; read-out: IC50, displacement of fluorescent probe 5-Fam-[…] from Sec24a.

Series [1] relates to CHO cells expressing G544V-mutant LDL receptor. As to the kind of experiment: Restoration of trafficking of mutant LDL receptor in cells (immunoblot for 160 kDa mature glycosylated form). Format: cell-based. The conditions noted are these: for EC50: ± standard error of fit. The procedure:
(§1) T-Rex-CHO-K1 cloned cell lines expressing wild-type and mutant LDL receptor were cultured as described ([Sørensen et al., 2006]; [Tveten et al., 2007]), and according to the manufacturer’s protocols (Thermo Fisher Scientific; CHO cell Lot No. 1610593). The expression in CHO cells of G544V-mutant or wild-type LDL receptor protein was induced with 1 µg/mL tetracycline for 24 hr prior to experiments with 4-PBA or 4-PBA analogs ([Tveten et al., 2007]). To compare pharmacological potency of 4-PBA analogs, cells were incubated with the compounds for 2 hr at 37°C in 12-well 22 mm plates (Corning Costar #3513). For experiments concerning the extracellular secretion of GRP94 (Figure 5), the incubations with 4-PBA were extended to 24 hr. Cells were broken in lysis buffer (1% (v/v) Triton X-100, 150 mM NaCl, 10 mM EDTA, 50 mM Tris-HCl pH 7.5) and cleared by centrifugation (15,000 g for 15 min). Cellular protein concentration was measured using ‘Protein Assay Kit II’ (Bio-Rad) with bovine serum albumin as standard. Lysates were added to Laemmli sample buffer (New England BioLabs) containing 130 mM dithiothreitol and heated for 15 min at 55°C. Cell medium (containing secreted proteins) was added to Laemmli sample buffer containing 5% β-mercaptoethanol and boiled for 5 min. Samples were run on 4–15% Tris/HCl Criterion gels (Bio-Rad) followed by immunoblotting.
Proteins were electrotransferred from SDS-PAGE gels onto Immun-Blot low fluorescence PVDF membrane (Bio-Rad) and blocked using TBST (5% BioRad Blocker in 25 mM Tris-HCl pH 7.4, 150 mM NaCl, 0.05% (v/v) Tween 20). Membranes were incubated at 4°C overnight with primary antibodies in TBST followed by incubation with horseradish peroxidase-conjugated secondary antibodies. Chemiluminescence signals were generated by incubation with ECL Prime Western Blotting detection reagent (GE Healthcare #RPN2236). […] Chemiluminescence signals were detected using a ChemiDoc MP Imaging System and acquired with Image Lab 5.0 software (Bio-Rad). Quantification of protein band intensities was performed using Image Gauge software Version 4.1 (Fujifilm), including background correction of the raw image data.
Chemiluminescence signals from western blots for the glycosylated (160 kDa) form of G544V-mutant LDL receptor were quantified as a percentage of total LDL receptor protein (glycosylated + unglycosylated bands). Data at high concentrations of 4-PBA analogs, which show inhibition of LDL receptor trafficking, were omitted. Data from individual experiments were normalized (to obtain maximal response = 100%), so that data from replicate experiments (n = 4–5) could be averaged. Logistic fitting to the dose-response data was carried out with program Ultrafit (Elsevier Biosoft).
(A western blot detects proteins with antibodies after separation by electrophoresis.)

Series [2] concerns the target T2, COPII coat (Sec23a/24d) packaging of p24 proteins and ERGIC-53 (Homo sapiens, UniProt O94855).
T2 construct: Sec23a/Sec24d (full-length protein) for COPII budding assays; His6 (TEV-cleavable) (N); made in house; host or cells: High Five insect cells (Sec23a/24d, Sec13a/31a); E. coli BL21(DE3) (Sar1a); added to digitonin-permeabilized T-Rex-CHO-K1 cells
As to the kind of experiment: In vitro COPII vesicle budding assay with permeabilized CHO (T-Rex-CHO-K1) cells. The series is classed as biochemical, H. sapiens. The settings on record: 10 mM 4-PBA; corrected for budding yield. As to the method: In vitro COPII budding reactions used permeabilized cells prepared from the T-Rex-CHO-K1 parent line and from the clone that expresses mutant LDL receptor. Permeabilization was carried out as described ([Mancias and Goldberg, 2008]) with modifications. Two culture dishes (150 mm) of cells were prepared with cells at no greater than 60% confluence. Cells were washed with 20 ml PBS at 37°C and then trypsinized with 2 ml of Trypsin-EDTA (0.05%, Gibco) for 1 min at 37°C; 100 µl of Soybean Trypsin Inhibitor (2 mg/ml; Sigma) was added to each culture plate. To this was added 5.5 ml ice-cold KHM buffer (110 mM KOAc, 20 mM Hepes pH 7.2, 2 mM magnesium acetate) per plate, and cells were transferred to a 15 ml Falcon tube and pelleted gently (250 g for 3 min at 4°C). The supernatant was aspirated and the cells resuspended in 6 ml ice-cold KHM buffer. To permeabilize the cells, 6 µl digitonin stock solution (40 mg/ml in dimethyl sulfoxide) was added, cells were mixed by inversion and incubated on ice for 5 min. To terminate permeabilization, cells were diluted to 14 ml with KHM buffer and immediately pelleted at 250 g for 3 min at 4°C. […] The protein concentration was measured using protein assay kit (Bio-Rad) with BSA as standard; routinely, the measurement is in the range 4–5 mg/ml. […]

Series [3] has as its system CHO cells (stressed, expressing G544V-mutant LDL receptor, and unstressed wild-type). Briefly: Extracellular secretion of GRP94 from CHO cells. Format: cell-based. The conditions noted are these: 24 hr at 37°C. As to the method: as §1
The target of the next series is T3, B site of Sec24a (Homo sapiens, UniProt O95486).
T3 construct: His6 (TEV-cleavable) (N, cleaved yes); made in house; host or cells: High Five insect cells (Sec23a/Sec24a); E. coli (Sec22b)
Briefly: X-ray crystallography of ligand-soaked Sec23a/Sec24a•Sec22b crystals. The series is classed as binding. The conditions noted are these: crystals soaked with 4-PBA at 1, 15 and 50 mM or with 5 mM ΦC signal peptide. As to the method:
The Sec23a/Sec24a•Sec22b complex was crystallized as described previously ([Mancias and Goldberg, 2007]) from a solution comprising 10% (w/v) PEG 4000, 500 mM Na acetate and 50 mM Tris-HCl pH 7.9. Since acetate ions compete with ligand binding at the B site, crystals were transferred into a soaking buffer of 10% (w/v) PEG 4000, 600 mM NaCl, 50 mM Tris-HCl buffer, pH 7.9. (Two acetate ions are observed bound to B-site arginine residues in electron density maps calculated from Sec23a/Sec24a•Sec22b crystallographic data, PDB 2NUT). To this was added 4-PBA (0–50 mM) or 5 mM ΦC signal peptide, and ligand soaking proceeded for five hours at 22°C. Crystals were then transferred to an equivalent ligand-containing buffer with additional 24% ethylene glycol cryo-protectant, and were flash frozen in liquid nitrogen. Crystals treated in this manner diffracted synchrotron X-rays to 2.5–2.8 Å resolution.
X-ray diffraction data were collected at 0.979 Å wavelength on beamline ID-24C or ID-24E of the Advanced Photon Source, Argonne National Laboratory. Data were processed with the program HKL2000 ([Otwinowski and Minor, 1997]; Tables 1 and 2). Structure refinement was carried out using Phenix ([Adams et al., 2010]), initially by rigid-body improvement, followed by positional refinement, based on the published coordinates of Sec23a/Sec24a•Sec22b (PDB 2NUT; [Mancias and Goldberg, 2007]). […]

[4] abbreviates: Cricetulus griseus, CHO, 2 h, read-out: EC50, acquisition of mutant LDL receptor glycosylation (restoration of trafficking), CHO cells expressing G544V-mutant LDL receptor, 2 hr at 37°C.

T2 sequence (O94855 whole entry): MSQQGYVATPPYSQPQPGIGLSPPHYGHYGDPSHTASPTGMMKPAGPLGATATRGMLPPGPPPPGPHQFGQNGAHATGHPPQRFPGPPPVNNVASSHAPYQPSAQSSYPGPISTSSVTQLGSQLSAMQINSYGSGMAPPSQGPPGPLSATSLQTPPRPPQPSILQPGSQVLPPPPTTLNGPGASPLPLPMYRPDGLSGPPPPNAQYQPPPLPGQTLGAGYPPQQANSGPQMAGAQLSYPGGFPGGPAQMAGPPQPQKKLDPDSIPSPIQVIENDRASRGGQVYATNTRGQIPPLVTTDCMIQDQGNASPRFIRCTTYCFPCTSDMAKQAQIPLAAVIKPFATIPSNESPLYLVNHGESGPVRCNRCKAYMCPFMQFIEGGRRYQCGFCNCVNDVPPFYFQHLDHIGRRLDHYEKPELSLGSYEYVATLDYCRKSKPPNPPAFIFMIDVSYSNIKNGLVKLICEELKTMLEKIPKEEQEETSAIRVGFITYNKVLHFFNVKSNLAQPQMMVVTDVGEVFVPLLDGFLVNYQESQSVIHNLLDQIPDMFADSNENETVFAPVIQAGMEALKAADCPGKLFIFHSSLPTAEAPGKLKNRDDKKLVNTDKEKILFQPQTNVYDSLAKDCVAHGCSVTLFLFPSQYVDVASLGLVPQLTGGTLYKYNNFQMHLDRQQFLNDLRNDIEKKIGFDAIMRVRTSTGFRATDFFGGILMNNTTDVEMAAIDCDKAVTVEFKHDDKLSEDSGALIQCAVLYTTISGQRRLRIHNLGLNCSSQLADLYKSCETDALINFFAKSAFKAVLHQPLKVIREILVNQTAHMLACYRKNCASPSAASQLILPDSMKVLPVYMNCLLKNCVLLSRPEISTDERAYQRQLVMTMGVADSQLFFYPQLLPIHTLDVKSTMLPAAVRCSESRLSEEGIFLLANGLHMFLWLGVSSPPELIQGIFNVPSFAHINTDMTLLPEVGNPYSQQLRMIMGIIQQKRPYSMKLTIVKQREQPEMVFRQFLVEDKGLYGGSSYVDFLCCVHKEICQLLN
T2 sequence (Q15436 whole entry partner): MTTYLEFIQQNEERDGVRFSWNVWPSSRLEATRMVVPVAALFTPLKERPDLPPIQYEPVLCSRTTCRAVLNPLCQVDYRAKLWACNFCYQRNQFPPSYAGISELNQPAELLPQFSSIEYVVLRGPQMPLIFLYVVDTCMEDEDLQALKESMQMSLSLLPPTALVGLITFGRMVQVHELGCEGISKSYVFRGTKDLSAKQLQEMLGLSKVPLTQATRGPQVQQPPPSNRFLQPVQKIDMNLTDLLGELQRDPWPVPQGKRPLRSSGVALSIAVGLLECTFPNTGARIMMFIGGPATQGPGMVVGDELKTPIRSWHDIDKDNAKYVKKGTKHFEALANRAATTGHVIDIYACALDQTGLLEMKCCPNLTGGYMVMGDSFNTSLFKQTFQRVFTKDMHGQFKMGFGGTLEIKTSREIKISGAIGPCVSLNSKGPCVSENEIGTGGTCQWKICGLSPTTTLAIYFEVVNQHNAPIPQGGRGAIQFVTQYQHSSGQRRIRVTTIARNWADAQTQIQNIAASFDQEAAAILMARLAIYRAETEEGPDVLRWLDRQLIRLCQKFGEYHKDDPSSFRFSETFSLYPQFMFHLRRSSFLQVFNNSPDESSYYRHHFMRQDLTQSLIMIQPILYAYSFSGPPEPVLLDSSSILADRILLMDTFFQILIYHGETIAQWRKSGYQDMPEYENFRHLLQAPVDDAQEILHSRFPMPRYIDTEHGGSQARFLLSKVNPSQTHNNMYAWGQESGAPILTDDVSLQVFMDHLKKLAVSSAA
T3 sequence (Q15436 whole entry partner, one chain of several): as the sequence (Q15436 whole entry partner) above
T3 sequence (O75396 1-195 partner limits assumed, one chain of several): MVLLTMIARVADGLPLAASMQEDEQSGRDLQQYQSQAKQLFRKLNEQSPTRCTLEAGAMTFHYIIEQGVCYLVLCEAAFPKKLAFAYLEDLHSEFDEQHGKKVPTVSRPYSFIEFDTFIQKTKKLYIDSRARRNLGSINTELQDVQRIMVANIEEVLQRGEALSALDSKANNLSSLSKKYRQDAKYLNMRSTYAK

`O=C(O)CCc1ccccc1` [3-PPA, 3-phenylpropionate]: the IC50 on human Sec24a was 4.11 ± 0.34 mM. Moreover, the EC50 in series [1] (setting [4]) was 7.48 ± 0.68 mM.

On to `O=C(O)CCCc1ccccc1` [4-PBA, 4-phenylbutyrate], for which, on human Sec24a, the IC50 is 3.66 ± 0.22 mM. Besides, in series [1] (10 mM 4-PBA applied to cells), the “fraction of mutant LDL receptor with restored trafficking” value is on record as no more than 25%. Also, the EC50 in series [1] (setting [4]) was found to be 6.4 mM; in series [1] (read-out: EC50, acquisition of mutant LDL receptor glycosylation (restoration of trafficking), CHO cells expressing G544V-mutant LDL receptor, 2 hr at 37°C) it was 6.37 ± 0.5 mM. Besides, in series [2], the “reduction in the packaging rate of p24 proteins and ERGIC-53 into COPII vesicles” value was 50%. Further, the “cell lysis (GAPDH marker) and loss of GRP94 secretion” value in series [3] (45 mM 4-PBA) is “cell lysis is detected”. For the same molecule, the “concentration giving maximal secretion of GRP94” value in series [3] (stressed and unstressed cells) is 20 mM. Besides, the “binding to Sec24a in crystals (difference Fourier maps / residual electron density)” value at B site of Sec24a is “clear evidence for binding”.

With `O=C(O)CCCCc1ccccc1` [5-PVA, 5-phenylvalerate], the IC50 on human Sec24a is 0.99 ± 0.08 mM. For the same molecule, the EC50 in series [1] (setting [4]) stood at 3.36 ± 0.42 mM.

In the case of `O=C(O)CCCc1ccc(O)cc1` [Hydroxy-PBA, 4-(4-hydroxyphenyl)butyrate], the IC50 at human Sec24a was 5.04 ± 0.69 mM. In addition, in series [1] (setting [4]), the EC50 was 10.6 ± 0.4 mM.

As for `O=C(O)CCc1ccc(O)cc1` [Hydroxy-PPA, 3-(4-hydroxyphenyl)propionate], the IC50 at human Sec24a turned out to be 9.22 ± 0.94 mM. Further, in series [1] (setting [4]), the EC50 was 21.7 ± 1.03 mM.

In the case of `COc1ccc(CCCC(=O)O)cc1` [Methoxy-PBA, 4-(4-methoxyphenyl)butyrate], the IC50 at human Sec24a is 4.14 ± 0.7 mM. In addition, the EC50 in series [1] (setting [4]) amounted to 8.63 ± 0.98 mM.

With `Cc1ccc(CCCC(=O)O)cc1` [Tolyl-BA, 4-(4-tolyl)butyrate], the IC50 at human Sec24a turned out to be 1.7 ± 0.16 mM. The EC50 in series [1] (setting [4]) was 4.89 ± 0.24 mM.

As a reminder, the IC50 is the concentration at which inhibition is half-maximal.
